Tests used:
[1] = Toxicity observed in mice after subcutaneous administration in the NMDA test; format: in vivo; settings: male NIH-Swiss mice; 120 mg/kg SC; n=8 mice/group
Procedure: (§1) Memantine (30 mg/kg; SC) was used as a positive control in each experiment and there were n=8 mice/group for all conditions.

NMDA receptors = assay: NMDA-induced seizure activity and lethality in mice (in vivo test for NMDA antagonist activity); settings: male NIH-Swiss mice, 30 min before NMDA 200 mg/kg IP
Description: Compounds 3-(3,5-dimethyladamantan-1-ylcarbamoyl)-(R)-2-hydroxypropyl)-trimethyl ammonium chloride [Formula 1(B); R1 and R2 are CH3; n=0], and 3-benzyloxycarbonyl-(R)-2-{[(3,5-dimethyladamantan-1-ylcarbamoyl)-propionyloxy]propyl}-trimethyl ammonium bromide [Formula 4(B); R1 and R2 are CH3; n=0; R3, R4, R5, R6 are hydrogen; and R^2 is a benzyl group] were selected for in vivo testing in mice, since both are potential prodrugs for memantine and L-carnitine through in vivo enzymatic hydrolysis of either an amide or ester linkages. Since memantine has N-methyl-D-aspartate (NMDA) antagonist properties, it was assumed that the above compounds would share these properties and therefore a test was utilized that identifies NMDA antagonist activity in vivo. Briefly, this test measures seizure activity and lethality in mice produced by the administration of NMDA […] which block these parameters in a dose-dependent manner (see Leander, J. D., et al., Brain Res. 448, 115-120 (1988), N-methyl-D-aspartate acid-induced lethality in mice: selective antagonism by phencyclidine-like drugs; Parsons, C. G., et al., Neuropharmacol. 34, 1239-1258 (1995).
as §1

SMILES	toxicity [1]	activity in NMDA-induced seizure/lethality test (NMDA receptors; 60 mg/kg SC)	time to lethality (NMDA receptors; 120 mg/kg SC, observed 30 min)	time to produce clonic seizures (NMDA receptors; 90 mg/kg SC, observed 30 min)	time to produce death (NMDA receptors; 90 mg/kg SC, observed 30 min)
CC12CC3CC(C)(C1)CC(NC(=O)C[C@@H](O)C[N+](C)(C)C)(C3)C2.[Cl-] [[3-(3,5-Dimethyl-adamantan-1-ylcarbamoyl)-(R)-2-hydroxy-propyl]-trimethylammonium chloride]	tremors, lethality in n=3 mice	inactive	slightly increased		
CC12CC3CC(C)(C1)CC(NC(=O)CCC(=O)O[C@H](CC(=O)OCc1ccccc1)C[N+](C)(C)C)(C3)C2.[Br-] [{3-Benzyloxycarbonyl-(R)-2-[3-(3,5-Dimethyladamantan-1-ylcarbamoyl)-propionyloxy]-propyl}-trimethylammonium bromide]				markedly increased	markedly increased

Source: patent US8049038B2, “Carnitine conjugates of adamantanamines derivatives as dual prodrugs for various uses” (priority 2006, dated 2011)
